# Measurements reported in paper PMC4604124, “In Vitro Characterization of the Pharmacological Properties of the Anti-Cancer Chelator, Bp4eT, and Its Phase I Metabolites” (PLoS ONE, 2015).
# Several values for one entry are separate records, joined by “and”; a condition that tells them apart may be missing. Equal entries are not always repeated. Where two headings read alike, the source gives them in different places.
# Columns and labels:
# [1] = test system: HCT116 human colorectal carcinoma cells; assay: MTT cytotoxicity assay, HCT116 cells; assay type: cell-based; conditions: for IC50: MTT
# Description: (§1) For cytotoxicity experiments, cancer cells were seeded at a density of 5,000 (MCF-7), 10,000 (HL-60) or 2,000 cells/well (HCT116 and A549) in 96-well plates (TPP) for 24 h/37°C prior to the addition of examined agents. The non-cancerous cells, 3T3 and H9c2 cells, were cultured for 24 h/37°C in 96-well plates at a density of 10,000 cells/well, the medium was then changed to serum- and pyruvate-free DMEM (Sigma-Aldrich) and incubated with the cells for another 24 h/37°C. The cytotoxic effects of Bp4eT and its metabolites were studied at different concentrations after a 72 h/37°C incubation. In order to aid the dissolution of the lipophilic ligands, 0.1% dimethyl sulfoxide (v/v) (DMSO; Sigma-Aldrich) was present in the culture medium of all groups. At this concentration, DMSO had no effect on cellular proliferation or viability.
# (§2) The viability of cells were determined using an MTT assay (Sigma-Aldrich) according to previously established methods. The optical density of soluble MTT was measured at λ = 570 nm, subtracting the λ = 690 nm background using a Tecan Infinite 200M plate reader (Tecan Group, Männedorf, Switzerland). The viability or proliferation of experimental groups was expressed as a percentage of the untreated controls (100%).
# (§3) SigmaStat for Windows 3.5 (Systat Software, San Jose, CA, USA) statistical software package was utilized to analyze results. The data are expressed as the mean ± SD of a given number of experiments. Statistical significance was determined using a one-way ANOVA with a Bonferroni post-hoc test or Student’s t-test. The results were considered to be statistically significant when p < 0.05. The IC50 values were calculated using CalcuSyn 2.0 software (Biosoft, Cambridge, UK). Cell cycle analysis was evaluated using MultiCycle AV Software (Phoenix Flow Systems, San Diego, CA, USA).
# [2] = test system: A549 human lung adenocarcinoma cells; assay: MTT cytotoxicity assay, A549 cells; assay type: cell-based; conditions: for IC50: MTT
# Description: as §1, §2, §3
# [3] = MTT cytotoxicity assay, 3T3 cells; assay type: cell-based, mouse; conditions: mouse, 3T3 mouse embryo fibroblasts, 3T3, 10 000 b/j; for viability at 72 h, 1 μM: koncentrace 1 μM; for viability at 72 h, 3 μM: koncentrace 3 μM; for viability at 72 h, 10 μM: koncentrace 10 μM; for viability at 72 h, 30 μM: koncentrace 30 μM; for viability at 72 h, 100 μM: koncentrace 100 μM; for viability at 72 h, 300 μM: koncentrace 300 μM; for viability at 72 h, 1000 μM: koncentrace 1000 μM
# Outline: (§4)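 Non-cancerous 3T3 mouse embryo fibroblasts were plated at 10,000 cells/well in 96-well plates and cultured for 24 h/37°C. The medium was then replaced with serum- and pyruvate-free DMEM for a further 24 h/37°C. Cells were exposed to agents for 72 h/37°C with 0.1% DMSO present, and viability was measured by MTT.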
# [4] = test system: 3T3 mouse embryo fibroblasts; assay: MTT cytotoxicity assay, 3T3 cells; assay type: cell-based; conditions: for IC50: MTT
# Outline: as §4
# [5] = test system: labile iron pool of MCF-7 cells; assay: Calcein-AM assay, access to the labile iron pool; assay type: cell-based, human; parameters: Calcein fluorescence: unit not given here; conditions: 10 μM; for Calcein fluorescence: mean (průměr)
# Outline: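 MCF-7 cells iron-loaded with ferric ammonium citrate (530 μg/mL) for 24 h, then loaded with 2 μM calcein-AM for 30 min at 37°C in ADS buffer, pH 7.4. Calcein fluorescence dequenching (ex 488/em 530 nm) followed for 10 min after adding 10 μM compound; efficacy expressed as percentage of Bp4eT (100%).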
# [6] = Viability (viabilita) used to normalise caspase activity; assay type: cell-based, human; conditions: human, MCF-7 cells, kontrola = 100;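 further: compound tested at 100 nM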
# From the text: Supplement pone.0139929.s002.zip/caspases activity.xlsx, sheet "results_viability"
# [7] = individual experiments, read-out: MTT viability (0 = 100)
# [8] = mean, read-out: MTT viability (0 = 100), průměr
smiles,measurement,setting,value
"CCN=CNN=C(c1ccccc1)c1ccccn1 [Bp4eA, N ^3-ethyl-N ^1-[phenyl(pyridin-2-yl)methylene]formamidrazone]","Therapeutic index, IC50 non-cancerous cells / IC50 neoplastic cells",[1]; 3T3/HCT116,9.2
same,"Therapeutic index, IC50 non-cancerous cells / IC50 neoplastic cells",[1]; H9c2/HCT116,3.7
same,"MTT, relative to control (0 = 100)","[1]; HCT116, 2 000 b/j, 1 μM, průměr (mean), sheet Bp4eA",97.58
same,"MTT, relative to control (0 = 100)","[1]; HCT116, 2 000 b/j, 1 μM, single experiment (date), sheet Bp4eA",99.1509 and 100.455 and 96.4816 and 94.6996 and 96.3825 and 98.3223
same,"MTT, relative to control (0 = 100)","[1]; HCT116, 2 000 b/j, 3 μM, průměr (mean), sheet Bp4eA",97.04
same,"MTT, relative to control (0 = 100)","[1]; HCT116, 2 000 b/j, 3 μM, single experiment (date), sheet Bp4eA",97.9686 and 98.7085 and 92.1521 and 93.3267 and 100.675 and 99.4316
same,"MTT, relative to control (0 = 100)","[1]; HCT116, 2 000 b/j, 10 μM, průměr (mean), sheet Bp4eA",94.04
same,"MTT, relative to control (0 = 100)","[1]; HCT116, 2 000 b/j, 10 μM, single experiment (date), sheet Bp4eA",94.463 and 96.9011 and 92.7169 and 93.3863 and 93.3144 and 93.4876
same,"MTT, relative to control (0 = 100)","[1]; HCT116, 2 000 b/j, 30 μM, průměr (mean), sheet Bp4eA",89.95
same,"MTT, relative to control (0 = 100)","[1]; HCT116, 2 000 b/j, 30 μM, single experiment (date), sheet Bp4eA",90.1675 and 87.4242 and 84.0067 and 87.0754 and 95.7934 and 95.2315
same,"MTT, relative to control (0 = 100)","[1]; HCT116, 2 000 b/j, 100 μM, průměr (mean), sheet Bp4eA",58.40
same,"MTT, relative to control (0 = 100)","[1]; HCT116, 2 000 b/j, 100 μM, single experiment (date), sheet Bp4eA",42.8559 and 58.6495 and 64.6288 and 67.4584
same,"MTT, relative to control (0 = 100)","[1]; HCT116, 2 000 b/j, 300 μM, průměr (mean), sheet Bp4eA",9.79
same,"MTT, relative to control (0 = 100)","[1]; HCT116, 2 000 b/j, 1000 μM, průměr (mean), sheet Bp4eA",2.29
same,IC50,"[1]; HCT116, 2 000 b/j, single experiment (date), sheet Bp4eA",115 µM and 125 µM (2×)
same,IC50,"[1]; Homo sapiens, HCT-116, 72 h, HCT116, 72 h/37°C, mean ± SD, n ≥ 4",112 ± 20.9 µM
same,IC50,"[1]; Homo sapiens, HCT-116, HCT116, 2 000 b/j, průměr (mean), sheet Bp4eA",112 µM
same,IC50,"[1]; Homo sapiens, HCT-116, HCT116, 2 000 b/j, single experiment (date), sheet Bp4eA",80.9 µM
same,"Therapeutic index, IC50 non-cancerous cells / IC50 neoplastic cells",[2]; 3T3/A549,5.0
same,"MTT, relative to control (0 = 100)","[2]; A549, 2 000 b/j, 1 μM, průměr (mean), sheet Bp4eA",94.41
same,"MTT, relative to control (0 = 100)","[2]; A549, 2 000 b/j, 1 μM, single experiment (date), sheet Bp4eA",88.8209 and 94.4571 and 96.7337 and 97.6446
same,"MTT, relative to control (0 = 100)","[2]; A549, 2 000 b/j, 3 μM, průměr (mean), sheet Bp4eA",94.09
same,"MTT, relative to control (0 = 100)","[2]; A549, 2 000 b/j, 3 μM, single experiment (date), sheet Bp4eA",86.5333 and 93.7511 and 98.3115 and 97.7691
same,"MTT, relative to control (0 = 100)","[2]; A549, 2 000 b/j, 10 μM, průměr (mean), sheet Bp4eA",92.78
same,"MTT, relative to control (0 = 100)","[2]; A549, 2 000 b/j, 10 μM, single experiment (date), sheet Bp4eA",86.1682 and 92.0865 and 96.0506 and 96.8227
same,"MTT, relative to control (0 = 100)","[2]; A549, 2 000 b/j, 30 μM, průměr (mean), sheet Bp4eA",91.20
same,"MTT, relative to control (0 = 100)","[2]; A549, 2 000 b/j, 30 μM, single experiment (date), sheet Bp4eA",88.1425 and 87.7957 and 97.6861 and 91.1602
same,"MTT, relative to control (0 = 100)","[2]; A549, 2 000 b/j, 100 μM, průměr (mean), sheet Bp4eA",77.56
same,"MTT, relative to control (0 = 100)","[2]; A549, 2 000 b/j, 100 μM, single experiment (date), sheet Bp4eA",74.9089 and 76.0742 and 86.7011 and 72.5654
same,"MTT, relative to control (0 = 100)","[2]; A549, 2 000 b/j, 300 μM, průměr (mean), sheet Bp4eA",45.10
same,"MTT, relative to control (0 = 100)","[2]; A549, 2 000 b/j, 300 μM, single experiment (date), sheet Bp4eA",48.1515 and 41.8857 and 54.342 and 36.0376
same,"MTT, relative to control (0 = 100)","[2]; A549, 2 000 b/j, 1000 μM, průměr (mean), sheet Bp4eA",7.31
same,"MTT, relative to control (0 = 100)","[2]; A549, 2 000 b/j, 1000 μM, single experiment (date), sheet Bp4eA",9.28 and 7.437 and 7.169 and 5.37
same,IC50,"[2]; A549, 2 000 b/j, single experiment (date), sheet Bp4eA",183 µM and 273 µM and 169 µM
same,"Therapeutic index, IC50 non-cancerous cells / IC50 neoplastic cells",[2]; H9c2/A549,2.0
same,IC50,"[2]; Homo sapiens, A549, 72 h, A549, 72 h/37°C, mean ± SD, n ≥ 4",207 ± 46.1 µM
same,IC50,"[2]; Homo sapiens, A549, A549, 2 000 b/j, průměr (mean), sheet Bp4eA",207 µM
same,IC50,"[2]; Homo sapiens, A549, A549, 2 000 b/j, single experiment (date), sheet Bp4eA",202 µM
same,"viability at 72 h, 1 μM",[3]; [7],110%
same,"viability at 72 h, 1 μM",[3]; [8],100%
same,"viability at 72 h, 3 μM",[3]; [7],106%
same,"viability at 72 h, 3 μM",[3]; [8],98.2%
same,"viability at 72 h, 10 μM",[3]; [7],103%
same,"viability at 72 h, 10 μM",[3]; [8],94.7%
same,"viability at 72 h, 30 μM",[3]; [7],101%
same,"viability at 72 h, 30 μM",[3]; [8],92.8%
same,"viability at 72 h, 100 μM",[3]; [7],88.8%
same,"viability at 72 h, 100 μM",[3]; [8],87.3%
same,"viability at 72 h, 300 μM",[3]; [7],80.5%
same,"viability at 72 h, 300 μM",[3]; [8],78.1%
same,"viability at 72 h, 1000 μM",[3]; [7],37.5%
same,"viability at 72 h, 1000 μM",[3]; [8],47.2%
same,IC50,"[4]; 3T3, 10 000 b/j, individual experiments, read-out: IC50",1.01 mM and 1.15 mM
same,MTT viability (0 = 100),"[4]; 3T3, 10 000 b/j, koncentrace 1 μM, individual experiments",95.1233 and 93.3461 and 101.857
same,MTT viability (0 = 100),"[4]; 3T3, 10 000 b/j, koncentrace 3 μM, individual experiments",92.5164 and 97.328 and 96.9903
same,MTT viability (0 = 100),"[4]; 3T3, 10 000 b/j, koncentrace 10 μM, individual experiments",86.2678 and 91.552 and 97.4344
same,MTT viability (0 = 100),"[4]; 3T3, 10 000 b/j, koncentrace 30 μM, individual experiments",90.9815 and 83.2122 and 96.551
same,MTT viability (0 = 100),"[4]; 3T3, 10 000 b/j, koncentrace 100 μM, individual experiments",87.8661 and 89.8957 and 82.8198
same,MTT viability (0 = 100),"[4]; 3T3, 10 000 b/j, koncentrace 300 μM, individual experiments",76.7642 and 78.9793 and 76.2498
same,MTT viability (0 = 100),"[4]; 3T3, 10 000 b/j, koncentrace 1000 μM, individual experiments",48.7008 and 53.1589 and 49.6824
same,IC50,"[4]; Mus musculus, Fibroblast, 3T3, 10 000 b/j, individual experiments, read-out: IC50",0.748 mM
same,IC50,"[4]; Mus musculus, Fibroblast, 3T3, 10 000 b/j, mean, read-out: IC50, průměr",1.03 mM
same,IC50,"[4]; Mus musculus, Fibroblast, 72 h, 3T3, 72 h/37°C, mean ± SD, n ≥ 4, read-out: IC50",1.03 ± 0.204 mM
same,Calcein fluorescence,[5]; 30 sec,16.628
same,Calcein fluorescence,[5]; 60 sec,5.072
same,Calcein fluorescence,[5]; 90 sec,8.535
same,Calcein fluorescence,[5]; 120 sec,16.564
same,Calcein fluorescence,[5]; 300 sec,13.356
same,Calcein fluorescence,[5]; 600 sec,12.951
same,Chelation efficacy: fluorescence of free calcein at t = 600 s as percentage of Bp4eT,"[5]; MCF-7, mean of 6 experiments",5.9% and 5.872%
same,"viability at 3 h, 100 nM",[6]; 3 hodiny,96.8%
same,"viability at 24 h, 100 nM",[6]; 24 hodin,95.6%
same,"viability at 72 h, 100 nM",[6]; 72 hodin,93%
